Experimental data: the supplement of paper PMC10307832

Experiments:
Experiment in all cases: relative viability (nuclei count vs DMSO), 5 days (fraction); higher = more cells survive
[1] = compound: C1=CC=C2C(=C1)N=C(S2)C(C#N)C3=NC(=NC=C3)NCCC4=CN=CC=C4 + Cc1nc(NC(=O)N2CCC[C@H]2C(N)=O)sc1-c1ccnc(C(C)(C)C(F)(F)F)c1 [Alpelisib] (partner 2 µM)
Procedure, shortened: (§1)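 Lung cancer cell lines were pin-tool dosed in 1536-well plates on the day after seeding, with either a lone drug or a fixed anchor-drug dose plus five library-drug doses (not always all listed) in √10 steps. Nuclei were counted on 4× images after 5 days. Relative viability is the ratio of treated-well to vehicle-well nuclei counts, with each value a median of duplicate plates.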

[2] = compound: C1=CC=C2C(=C1)N=C(S2)C(C#N)C3=NC(=NC=C3)NCCC4=CN=CC=C4 + Nc1nc2[nH]cc(CCc3ccc(C(=O)N[C@@H](CCC(=O)O)C(=O)O)cc3)c2c(=O)[nH]1 [Pemetrexed] (partner 0.2 µM)
Procedure, shortened: as §1

NVP-TAE684 + Crizotinib = compound: COc1cc(N2CCC(N3CCN(C)CC3)CC2)ccc1Nc1ncc(Cl)c(Nc2ccccc2S(=O)(=O)C(C)C)n1 [NVP-TAE684] + C[C@@H](Oc1cc(-c2cnn(C3CCNCC3)c2)cnc1N)c1c(Cl)ccc(F)c1Cl [Crizotinib] (partner 1 µM)
Procedure, shortened: as §1

Vandetanib + Olaparib = compound: COc1cc2/c(=N/c3ccc(Br)cc3F)nc[nH]c2cc1OCC1CCN(C)CC1 [Vandetanib] + O=C(c1cc(Cc2n[nH]c(=O)c3ccccc23)ccc1F)N1CCN(C(=O)C2CC2)CC1 [Olaparib] (partner 8 µM)
Procedure, shortened: as §1

UMC-11
relative viability ([1]; first compound 0.005 µM): 0.644 | relative viability ([1]; first compound 0.01581 µM): 1.12 | relative viability ([1]; first compound 0.05 µM): 0.924 | relative viability ([1]; first compound 0.1581 µM): 1.11 | relative viability ([1]; first compound 0.5 µM): 0.78 | relative viability ([2]; first compound 0.01581 µM): 0.79 | relative viability ([2]; first compound 0.05 µM): 0.769 | relative viability ([2]; first compound 0.1581 µM): 0.94 | relative viability ([2]; first compound 0.5 µM): 0.771 | relative viability (NVP-TAE684 + Crizotinib; first compound 0.2 µM): 0.45 | relative viability (NVP-TAE684 + Crizotinib; first compound 0.6325 µM): 0.459 | relative viability (NVP-TAE684 + Crizotinib; first compound 2 µM): 0.145 | relative viability (Vandetanib + Olaparib; first compound 0.02 µM): 0.707 | relative viability (Vandetanib + Olaparib; first compound 0.06325 µM): 0.35 | relative viability (Vandetanib + Olaparib; first compound 0.2 µM): 0.473 | relative viability (Vandetanib + Olaparib; first compound 0.6325 µM): 0.315 | relative viability (Vandetanib + Olaparib; first compound 2 µM): 0.475
